The values that follow are results of earlier work, collected in EP0858808B1, “Peptides for use in wound treatment” (Johnson & Johnson Medical Ltd., priority 1997, dated 2003).

This data set deals with human fibroblast. As to conditions: concentration range 2.5 mM to 25 mM.

As for Gly-Pro-Ala, the chemotactic activity result is “no chemotactic activity”.
